Where a name gives a salt, the structure may show the parent alone.
Test system: behaviors of compound-treated mice
Assay: Neuropharmacological Assay (SmartCube)
Format: in vivo
Conditions: for minimal effective dose: Mus musculus, ip, 0.25 h, dose having 50% or more total activity in SmartCube, i.p., read-out: MED (minimal effective dose); for AD: ADHD (probability that activity matches class) / AG: analgesic (probability that activity matches class) / AX: anxiolytic (probability that activity matches class) / CE: cognitive enhancer (probability that activity matches class) / DP: anti-depressant (probability that activity matches class) / MS: mood stabilizer (probability that activity matches class) / PS: anti-psychotic (probability that activity matches class) / SD: sedative hypnotic (probability that activity matches class) / UN: uncharacterized CNS activity (probability that activity matches class): i.p. 15 min before behavioral test, most efficacious dose(s) of 3 doses
Method in brief: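 Mice dosed i.p. 15 min before testing, with compound in N-methyl-2-pyrrolidone/PEG/propylene glycol, were video-recorded and algorithmically compared with reference-drug behavioral signatures. This gave class-match probabilities (antidepressant, anxiolytic, etc.) at the most efficacious of 3 doses. MED was defined as the dose with ≥50% total activity, usually tested across 0.3–30 mpk.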

SMILES: CNC[C@@H]1OCCc2ccc(-c3ccncc3)cc21 [Compound 49, (R)—N-Methyl-1-(7-(pyridin-4-yl)isochroman-1-yl)methanamine hydrochloride]
- minimal effective dose: ≤ 3 mg/kg
- AD: ADHD (probability that activity matches class): + (LOQ ≤ + <5%)
- AG: analgesic (probability that activity matches class): ++ (5% ≤ ++ <25%)
- AX: anxiolytic (probability that activity matches class): ++ (5% ≤ ++ <25%)
- CE: cognitive enhancer (probability that activity matches class): ++ (5% ≤ ++ <25%)
- DP: anti-depressant (probability that activity matches class): ++ (5% ≤ ++ <25%)
- MS: mood stabilizer (probability that activity matches class): + (LOQ ≤ + <5%)
- PS: anti-psychotic (probability that activity matches class): ++ (5% ≤ ++ <25%)
- SD: sedative hypnotic (probability that activity matches class): + (LOQ ≤ + <5%)
- UN: uncharacterized CNS activity (probability that activity matches class): ++++ (50% ≤ ++++)

SMILES: CNC[C@@H]1OCCc2c(-c3ncccn3)cccc21 [Compound 24, (R)—N-Methyl-1-(5-(pyrimidin-2-yl)isochroman-1-yl)methanamine hydrochloride]
- minimal effective dose: > 30 mg/kg
- AD: ADHD (probability that activity matches class): + (LOQ ≤ + <5%)
- AG: analgesic (probability that activity matches class): + (LOQ ≤ + <5%)
- AX: anxiolytic (probability that activity matches class): ++ (5% ≤ ++ <25%)
- CE: cognitive enhancer (probability that activity matches class): + (LOQ ≤ + <5%)
- DP: anti-depressant (probability that activity matches class): + (LOQ ≤ + <5%)
- MS: mood stabilizer (probability that activity matches class): + (LOQ ≤ + <5%)
- PS: anti-psychotic (probability that activity matches class): + (LOQ ≤ + <5%)
- SD: sedative hypnotic (probability that activity matches class): + (LOQ ≤ + <5%)
- UN: uncharacterized CNS activity (probability that activity matches class): ++ (5% ≤ ++ <25%)

SMILES: NC[C@@H]1OCCc2cccc(-c3cccnc3)c21 (single isomer, unassigned) [Compound 9, hydrochloride]
- minimal effective dose: 10 to 30 mg/kg
- AD: ADHD (probability that activity matches class): + (LOQ ≤ + <5%)
- AG: analgesic (probability that activity matches class): ++ (5% ≤ ++ <25%)
- AX: anxiolytic (probability that activity matches class): ++ (5% ≤ ++ <25%)
- CE: cognitive enhancer (probability that activity matches class): + (LOQ ≤ + <5%)
- DP: anti-depressant (probability that activity matches class): ++ (5% ≤ ++ <25%)
- MS: mood stabilizer (probability that activity matches class): + (LOQ ≤ + <5%)
- PS: anti-psychotic (probability that activity matches class): ++ (5% ≤ ++ <25%)
- SD: sedative hypnotic (probability that activity matches class): + (LOQ ≤ + <5%)
- UN: uncharacterized CNS activity (probability that activity matches class): + (LOQ ≤ + <5%)

SMILES: NC[C@H]1OCCc2c(-c3cncnc3)cccc21 (single isomer, unassigned) [Compound 28, hydrochloride salt]
- minimal effective dose: 3 to 10 mg/kg
- AD: ADHD (probability that activity matches class): ++ (5% ≤ ++ <25%)
- AG: analgesic (probability that activity matches class): ++ (5% ≤ ++ <25%)
- AX: anxiolytic (probability that activity matches class): ++ (5% ≤ ++ <25%)
- CE: cognitive enhancer (probability that activity matches class): ++ (5% ≤ ++ <25%)
- DP: anti-depressant (probability that activity matches class): +++ (25% ≤ +++ <50%)
- MS: mood stabilizer (probability that activity matches class): + (LOQ ≤ + <5%)
- PS: anti-psychotic (probability that activity matches class): ++ (5% ≤ ++ <25%)
- SD: sedative hypnotic (probability that activity matches class): + (LOQ ≤ + <5%)
- UN: uncharacterized CNS activity (probability that activity matches class): ++ (5% ≤ ++ <25%)

SMILES: CNC[C@@H]1OCCCc2c(-c3ccncn3)cccc21 (single isomer, unassigned) [Compound 164, hydrochloride salt]
- minimal effective dose: 10 to 30 mg/kg
- AD: ADHD (probability that activity matches class): + (LOQ ≤ + <5%)
- AG: analgesic (probability that activity matches class): + (LOQ ≤ + <5%)
- AX: anxiolytic (probability that activity matches class): + (LOQ ≤ + <5%)
- CE: cognitive enhancer (probability that activity matches class): + (LOQ ≤ + <5%)
- DP: anti-depressant (probability that activity matches class): + (LOQ ≤ + <5%)
- MS: mood stabilizer (probability that activity matches class): + (LOQ ≤ + <5%)
- PS: anti-psychotic (probability that activity matches class): + (LOQ ≤ + <5%)
- SD: sedative hypnotic (probability that activity matches class): + (LOQ ≤ + <5%)
- UN: uncharacterized CNS activity (probability that activity matches class): + (LOQ ≤ + <5%)

SMILES: NC[C@H]1OCCc2c(-c3ccccc3)cccc21 (single isomer, unassigned) [Compound 131, hydrochloride salt]
- minimal effective dose: ≤ 3 mg/kg
- AD: ADHD (probability that activity matches class): + (LOQ ≤ + <5%)
- AG: analgesic (probability that activity matches class): + (LOQ ≤ + <5%)
- AX: anxiolytic (probability that activity matches class): ++ (5% ≤ ++ <25%)
- CE: cognitive enhancer (probability that activity matches class): + (LOQ ≤ + <5%)
- DP: anti-depressant (probability that activity matches class): ++++ (50% ≤ ++++)
- MS: mood stabilizer (probability that activity matches class): + (LOQ ≤ + <5%)
- PS: anti-psychotic (probability that activity matches class): + (LOQ ≤ + <5%)
- SD: sedative hypnotic (probability that activity matches class): + (LOQ ≤ + <5%)
- UN: uncharacterized CNS activity (probability that activity matches class): ++ (5% ≤ ++ <25%)

SMILES: NC[C@H]1OCCc2c(-c3ccccn3)cccc21 (single isomer, unassigned) [Compound 46, hydrochloride]
- minimal effective dose: 10 to 30 mg/kg
- AD: ADHD (probability that activity matches class): + (LOQ ≤ + <5%)
- AG: analgesic (probability that activity matches class): + (LOQ ≤ + <5%)
- AX: anxiolytic (probability that activity matches class): ++ (5% ≤ ++ <25%)
- CE: cognitive enhancer (probability that activity matches class): + (LOQ ≤ + <5%)
- DP: anti-depressant (probability that activity matches class): ++ (5% ≤ ++ <25%)
- MS: mood stabilizer (probability that activity matches class): + (LOQ ≤ + <5%)
- PS: anti-psychotic (probability that activity matches class): + (LOQ ≤ + <5%)
- SD: sedative hypnotic (probability that activity matches class): + (LOQ ≤ + <5%)
- UN: uncharacterized CNS activity (probability that activity matches class): ++++ (50% ≤ ++++)

SMILES: CNC[C@H]1OCCc2c(-c3ccccc3)cccc21 (single isomer, unassigned) [Compound 129, hydrochloride salt]
- minimal effective dose: 3 to 10 mg/kg
- AD: ADHD (probability that activity matches class): + (LOQ ≤ + <5%)
- AG: analgesic (probability that activity matches class): + (LOQ ≤ + <5%)
- AX: anxiolytic (probability that activity matches class): + (LOQ ≤ + <5%)
- CE: cognitive enhancer (probability that activity matches class): ++ (5% ≤ ++ <25%)
- DP: anti-depressant (probability that activity matches class): ++++ (50% ≤ ++++)
- MS: mood stabilizer (probability that activity matches class): + (LOQ ≤ + <5%)
- PS: anti-psychotic (probability that activity matches class): + (LOQ ≤ + <5%)
- SD: sedative hypnotic (probability that activity matches class): ++ (5% ≤ ++ <25%)
- UN: uncharacterized CNS activity (probability that activity matches class): + (LOQ ≤ + <5%)

SMILES: CNC[C@H]1OCc2c(-c3ccncc3)cccc21 [Compound 40, (S)—N-Methyl-1-(4-(pyridin-4-yl)-1,3-dihydroisobenzofuran-1-yl)methanamine hydrochloride salt]
- minimal effective dose: ≤ 3 mg/kg
- AD: ADHD (probability that activity matches class): ++ (5% ≤ ++ <25%)
- AG: analgesic (probability that activity matches class): ++++ (50% ≤ ++++)
- AX: anxiolytic (probability that activity matches class): ++ (5% ≤ ++ <25%)
- CE: cognitive enhancer (probability that activity matches class): ++ (5% ≤ ++ <25%)
- DP: anti-depressant (probability that activity matches class): ++++ (50% ≤ ++++)
- MS: mood stabilizer (probability that activity matches class): + (LOQ ≤ + <5%)
- PS: anti-psychotic (probability that activity matches class): + (LOQ ≤ + <5%)
- SD: sedative hypnotic (probability that activity matches class): + (LOQ ≤ + <5%)
- UN: uncharacterized CNS activity (probability that activity matches class): + (LOQ ≤ + <5%)

SMILES: CNC[C@H]1OCCc2c(-c3cc(C)nc(C)c3)cccc21 [Compound 125, (S)-1-(5-(2,6-dimethylpyridin-4-yl)isochroman-1-yl)-N-methylmethanamine dihydrochloride]
- minimal effective dose: ≤ 3 mg/kg
- AD: ADHD (probability that activity matches class): + (LOQ ≤ + <5%)
- AG: analgesic (probability that activity matches class): + (LOQ ≤ + <5%)
- AX: anxiolytic (probability that activity matches class): + (LOQ ≤ + <5%)
- CE: cognitive enhancer (probability that activity matches class): + (LOQ ≤ + <5%)
- DP: anti-depressant (probability that activity matches class): ++++ (50% ≤ ++++)
- MS: mood stabilizer (probability that activity matches class): + (LOQ ≤ + <5%)
- PS: anti-psychotic (probability that activity matches class): + (LOQ ≤ + <5%)
- SD: sedative hypnotic (probability that activity matches class): + (LOQ ≤ + <5%)
- UN: uncharacterized CNS activity (probability that activity matches class): ++++ (50% ≤ ++++)

SMILES: CNC[C@@H]1OCCc2c(-c3cc(C)nc(C)c3)cccc21 [Compound 124, (R)-1-(5-(2,6-dimethylpyridin-4-yl)isochroman-1-yl)-N-methylmethanamine dihydrochloride]
- minimal effective dose: 10 to 30 mg/kg
- AD: ADHD (probability that activity matches class): + (LOQ ≤ + <5%)
- AG: analgesic (probability that activity matches class): + (LOQ ≤ + <5%)
- AX: anxiolytic (probability that activity matches class): + (LOQ ≤ + <5%)
- CE: cognitive enhancer (probability that activity matches class): + (LOQ ≤ + <5%)
- DP: anti-depressant (probability that activity matches class): + (LOQ ≤ + <5%)
- MS: mood stabilizer (probability that activity matches class): + (LOQ ≤ + <5%)
- PS: anti-psychotic (probability that activity matches class): + (LOQ ≤ + <5%)
- SD: sedative hypnotic (probability that activity matches class): + (LOQ ≤ + <5%)
- UN: uncharacterized CNS activity (probability that activity matches class): + (LOQ ≤ + <5%)

SMILES: NC[C@@H]1OCCc2c(-c3ccon3)cccc21 (single isomer, unassigned) [Compound 88, hydrochloride salt]
- minimal effective dose: 10 to 30 mg/kg
- AD: ADHD (probability that activity matches class): + (LOQ ≤ + <5%)
- AG: analgesic (probability that activity matches class): + (LOQ ≤ + <5%)
- AX: anxiolytic (probability that activity matches class): ++ (5% ≤ ++ <25%)
- CE: cognitive enhancer (probability that activity matches class): + (LOQ ≤ + <5%)
- DP: anti-depressant (probability that activity matches class): ++ (5% ≤ ++ <25%)
- MS: mood stabilizer (probability that activity matches class): + (LOQ ≤ + <5%)
- PS: anti-psychotic (probability that activity matches class): + (LOQ ≤ + <5%)
- SD: sedative hypnotic (probability that activity matches class): + (LOQ ≤ + <5%)
- UN: uncharacterized CNS activity (probability that activity matches class): + (LOQ ≤ + <5%)

SMILES: NC[C@@H]1OCCc2c(-c3ccncc3)cccc21 [Compound 19, (R)-(5-(Pyridin-4-yl)isochroman-1-yl)methanamine hydrochloride salt]
- minimal effective dose: > 30 mg/kg
- AD: ADHD (probability that activity matches class): + (LOQ ≤ + <5%)
- AG: analgesic (probability that activity matches class): ++ (5% ≤ ++ <25%)
- AX: anxiolytic (probability that activity matches class): ++ (5% ≤ ++ <25%)
- CE: cognitive enhancer (probability that activity matches class): ++ (5% ≤ ++ <25%)
- DP: anti-depressant (probability that activity matches class): ++ (5% ≤ ++ <25%)
- MS: mood stabilizer (probability that activity matches class): + (LOQ ≤ + <5%)
- PS: anti-psychotic (probability that activity matches class): + (LOQ ≤ + <5%)
- SD: sedative hypnotic (probability that activity matches class): + (LOQ ≤ + <5%)
- UN: uncharacterized CNS activity (probability that activity matches class): + (LOQ ≤ + <5%)

— US10780074B2, “Compounds and uses thereof” (Sunovion Pharmaceuticals Inc., priority 2017, dated 2020)
